Laboratory results as given in patent US20240308996A1, “PYRIDOPYRIDINES AND DERIVATIVES THEREOF AS SELECTIVE KINASE INHIBITORS” (University of Sharjah, priority 2023, published 2024).

Columns and labels:
Type in all cases: cell-based
CCRF-CEM = test: NCI-60 cell line panel: CCRF-CEM; details: Leukemia; for IC50: Homo sapiens; for TGI: total growth inhibition
Experimental: (§1) It was carried out at the NCI, Bethesda, MD, USA, utilizing their standard protocol.

HL-60(TB) = test: NCI-60 cell line panel: HL-60(TB); design: TGI: unit not given here; details: Leukemia; for IC50: Homo sapiens; for TGI: total growth inhibition
Experimental: as §1

MOLT-4 = test: NCI-60 cell line panel: MOLT-4; design: TGI: unit not given here; details: Leukemia; for IC50: Homo sapiens; for TGI: total growth inhibition
Experimental: as §1

RPMI-8226 = test: NCI-60 cell line panel: RPMI-8226; details: Leukemia; for IC50: Homo sapiens; for TGI: total growth inhibition
Experimental: as §1

SR = test: NCI-60 cell line panel: SR; details: Leukemia; for IC50: Homo sapiens; for TGI: total growth inhibition
Experimental: as §1

A549/ATCC = test: NCI-60 cell line panel: A549/ATCC; details: Non-Small Cell Lung Cancer; for IC50: Homo sapiens; for TGI: total growth inhibition
Experimental: as §1

NCI-H226 = test: NCI-60 cell line panel: NCI-H226; details: Non-Small Cell Lung Cancer; for IC50: Homo sapiens; for TGI: total growth inhibition
Experimental: as §1

NCI-H23 = test: NCI-60 cell line panel: NCI-H23; details: Non-Small Cell Lung Cancer
Experimental: as §1

COLO 205 = test: NCI-60 cell line panel: COLO 205; design: TGI: unit not given here; details: Colon Cancer; for TGI: total growth inhibition; for IC50: Homo sapiens
Experimental: as §1

HCC-2998 = test: NCI-60 cell line panel: HCC-2998; details: Colon Cancer; for TGI: total growth inhibition; for IC50: Homo sapiens
Experimental: as §1

HCT-116 = test: NCI-60 cell line panel: HCT-116; details: Colon Cancer; for TGI: total growth inhibition; for IC50: Homo sapiens
Experimental: as §1

KM12 = test: NCI-60 cell line panel: KM12; details: Colon Cancer; for TGI: total growth inhibition; for IC50: Homo sapiens
Experimental: as §1

SW-620 = test: NCI-60 cell line panel: SW-620; details: Colon Cancer; for TGI: total growth inhibition; for IC50: Homo sapiens
Experimental: as §1

SF-295 = test: NCI-60 cell line panel: SF-295; details: CNS Cancer; for TGI: total growth inhibition, unit assumed; for IC50: Homo sapiens
Experimental: as §1

SF-539 = test: NCI-60 cell line panel: SF-539; details: CNS Cancer; for TGI: total growth inhibition; for IC50: Homo sapiens
Experimental: as §1

SNB-19 = test: NCI-60 cell line panel: SNB-19; details: CNS Cancer; for TGI: total growth inhibition; for IC50: Homo sapiens
Experimental: as §1

U251 = test: NCI-60 cell line panel: U251; design: TGI: unit not given here; details: for TGI: CNS Cancer, total growth inhibition; for IC50: Homo sapiens, U-251, CNS Cancer
Experimental: as §1

M14 = test: NCI-60 cell line panel: M14; details: Melanoma; for IC50: Homo sapiens; for TGI: total growth inhibition
Experimental: as §1

SK-MEL-2 = test: NCI-60 cell line panel: SK-MEL-2; design: TGI: unit not given here; details: Melanoma; for IC50: Homo sapiens; for TGI: total growth inhibition
Experimental: as §1

SK-MEL-28 = test: NCI-60 cell line panel: SK-MEL-28; details: Melanoma; for IC50: Homo sapiens; for TGI: total growth inhibition
Experimental: as §1

IGROV1 = test: NCI-60 cell line panel: IGROV1; details: for IC50: Homo sapiens, IGROV-1, Ovarian Cancer; for TGI: Ovarian Cancer, total growth inhibition
Experimental: as §1

OVCAR-3 = test: NCI-60 cell line panel: OVCAR-3; details: Ovarian Cancer; for IC50: Homo sapiens; for TGI: total growth inhibition
Experimental: as §1

OVCAR-4 = test: NCI-60 cell line panel: OVCAR-4; details: Ovarian Cancer; for IC50: Homo sapiens
Experimental: as §1

OVCAR-5 = test: NCI-60 cell line panel: OVCAR-5; details: Ovarian Cancer; for IC50: Homo sapiens; for TGI: total growth inhibition
Experimental: as §1

786-0 = test: NCI-60 cell line panel: 786-0; details: Renal Cancer; for IC50: Homo sapiens; for TGI: total growth inhibition
Experimental: as §1

RXF 393 = test: NCI-60 cell line panel: RXF 393; details: Renal Cancer; for IC50: Homo sapiens; for TGI: total growth inhibition
Experimental: as §1

UO-31 = test: NCI-60 cell line panel: UO-31; design: TGI: unit not given here; details: Renal Cancer; for IC50: Homo sapiens; for TGI: total growth inhibition
Experimental: as §1

MCF7 = test: NCI-60 cell line panel: MCF7; details: Breast Cancer; for TGI: total growth inhibition; for IC50: Homo sapiens
Experimental: as §1

MDA-MB-231/ATCC = test: NCI-60 cell line panel: MDA-MB-231/ATCC; details: Breast Cancer; for TGI: total growth inhibition; for IC50: Homo sapiens
Experimental: as §1

HS 578T = test: NCI-60 cell line panel: HS 578T; details: for TGI: Breast Cancer, HS 578T, total growth inhibition; for IC50: Homo sapiens, Hs-578T
Experimental: as §1

BT-549 = test: NCI-60 cell line panel: BT-549; details: Breast Cancer; for TGI: total growth inhibition; for IC50: Homo sapiens
Experimental: as §1

HepG2 = test: MTT assay, HepG2 HCC cell line; details: Homo sapiens, 48 h, mean of triplicate assays ± SEM
Experimental: Two HCC cell lines (Hep3B and HepG2) were used for screening the antiproliferative activity of the synthesized compounds. The cell lines were obtained from the European Collection of Cell Cultures (ECACC, UK) and maintained in Dulbecco's Modified Eagle Medium (DMEM: Sigma-Aldrich) supplemented with 10% fetal bovine serum (FBS) and 1% penicillin/streptomycin and incubated at 37° C. in a 5% CO2 air atmosphere. In addition, WI-38 normal cell line was used to investigate the safety of these compounds.
MTT assay was conducted to calculate the IC50 of the compounds following the reported procedure . Briefly, the cells were seeded in 96-well tissue culture plates with a density of 5×10^4 cells/well and incubated overnight at 37° C. in a 5% CO2 air atmosphere. […] DMSO was used as a negative control. After 48 h, the media were aspirated, and replaced with media containing 0.5 mg/mL of MTT tetrazolium dye (Sigma-Aldrich) for 2 h at 37° C. Finally, the media were removed and 200 μL of DMSO was added to solubilize the formazan crystals. Absorbance was then measured at 570 nm using Varioskan Flash multimode plate reader (Thermo Scientific, Massachusetts, USA).

## CCN1CCN(c2ccc(NC(=O)Nc3ccc(-c4cc(C(=O)NC)c5ncccc5n4)cc3)cc2C(F)(F)F)CC1 [Compound 13c, 2-(4-(3-(4-(4-Ethylpiperazin-1-yl)-3-(trifluoromethyl)phenyl)ureido)phenyl)-N-methyl-1,5-naphthyridine-4-carboxamide]
CCRF-CEM
  IC50: 0.46 µM
  TGI: 1.27 µM
HL-60(TB)
  IC50: 3.42 µM
  TGI: >18.0
MOLT-4
  IC50: 0.7 µM
  TGI: >18.0
RPMI-8226
  IC50: 3.05 µM
  TGI: > 18 µM
SR
  IC50: 0.67 µM
  TGI: > 18 µM
A549/ATCC
  IC50: 0.47 µM
  TGI: 1.3 µM
NCI-H226
  IC50: 2.7 µM
  TGI: 6.36 µM
NCI-H23; Homo sapiens
  IC50: 2.68 µM
NCI-H23; total growth inhibition
  TGI: 5.68 µM
COLO 205
  TGI: 14.20
  IC50: 4.15 µM
HCC-2998
  TGI: 5.31 µM
  IC50: 2.83 µM
HCT-116
  TGI: 4.83 µM
  IC50: 1.12 µM
KM12
  TGI: 6.65 µM
  IC50: 3.25 µM
SW-620
  TGI: 0.62 µM
  IC50: 0.31 µM
SF-295
  TGI: 4.47 µM
  IC50: 2.06 µM
SF-539
  TGI: 4.57 µM
  IC50: 2.3 µM
SNB-19
  TGI: 5.48 µM
  IC50: 2.97 µM
U251
  TGI: 5.53
  IC50: 2.69 µM
M14
  IC50: 0.4 µM
  TGI: 1.05 µM
SK-MEL-2
  IC50: 9.87 µM
  TGI: >18.0
SK-MEL-28
  IC50: 0.32 µM
  TGI: 0.58 µM
IGROV1
  IC50: 3.01 µM
  TGI: 5.61 µM
OVCAR-3
  IC50: 2.54 µM
  TGI: 5.06 µM
OVCAR-4
  IC50: 2.63 µM
OVCAR-5
  IC50: 2.82 µM
  TGI: 5.23 µM
786-0
  IC50: 0.3 µM
  TGI: 0.58 µM
RXF 393
  IC50: 0.49 µM
  TGI: 1.66 µM
UO-31
  IC50: 2.71 µM
  TGI: 5.14
MCF7
  TGI: 0.61 µM
  IC50: 0.29 µM
MDA-MB-231/ATCC
  TGI: 5.25 µM
  IC50: 2.78 µM
HS 578T
  TGI: 6.88 µM
  IC50: 2.39 µM
BT-549
  TGI: 5.67 µM
  IC50: 2.78 µM

## CNC(=O)c1cc(-c2ccc(NC(=O)Nc3ccc(N4CCN(C)CC4)c(C(F)(F)F)c3)cc2)nc2cccnc12 [Compound 13b, N-Methyl-2-(4-(3-(4-(4-methylpiperazin-1-yl)-3-(trifluoromethyl)phenyl)ureido)phenyl)-1,5-naphthyridine-4-carboxamide]
CCRF-CEM
  IC50: 3.16 µM
  TGI: 74.1 µM
HL-60(TB)
  IC50: 16.2 µM
  TGI: 38.7
MOLT-4
  IC50: 2.79 µM
  TGI: 14.9
RPMI-8226
  IC50: 3.85 µM
  TGI: 25 µM
SR
  IC50: 9.97 µM
  TGI: 44.6 µM
A549/ATCC
  IC50: 10.9 µM
  TGI: 24.3 µM
NCI-H226
  IC50: 18 µM
  TGI: 39.7 µM
COLO 205
  TGI: 32.8
  IC50: 16.8 µM
HCC-2998
  TGI: 34.6 µM
  IC50: 18 µM
HCT-116
  TGI: 75.6 µM
  IC50: 4.09 µM
KM12
  TGI: 43.3 µM
  IC50: 17.4 µM
SW-620
  TGI: 4.62 µM
  IC50: 2.11 µM
SF-295
  TGI: 36.9 µM
  IC50: 18 µM
SF-539
  TGI: 26.5 µM
  IC50: 13.6 µM
SNB-19
  TGI: 33.2 µM
  IC50: 16.8 µM
U251
  TGI: 14.7
  IC50: 3.43 µM
M14
  IC50: 1.79 µM
  TGI: 3.71 µM
SK-MEL-2
  IC50: ≥ 100 µM
  TGI: 100
SK-MEL-28
  IC50: 1.67 µM
  TGI: 3.11 µM
IGROV1
  IC50: 17.7 µM
  TGI: 36.6 µM
OVCAR-3
  IC50: 9.59 µM
  TGI: 25.8 µM
OVCAR-4
  IC50: 15.7 µM
OVCAR-4; total growth inhibition, in µM (unit assumed)
  TGI: 31.6
OVCAR-5
  IC50: 15.6 µM
  TGI: 29 µM
786-0
  IC50: 1.81 µM
  TGI: 3.52 µM
RXF 393
  IC50: 3.38 µM
  TGI: 15 µM
UO-31
  IC50: 15.3 µM
  TGI: 29.2
MCF7
  TGI: 3.45 µM
  IC50: 1.67 µM
MDA-MB-231/ATCC
  TGI: 38.1 µM
  IC50: 17.5 µM
HS 578T
  TGI: 38.9 µM
  IC50: 15 µM
BT-549
  TGI: 35.3 µM
  IC50: 16.5 µM
HepG2
  IC50: 1.48 ± 0.09 µM
